Data taken from US7645760B2, “1-(4-Benzyl-piperazin-1-yl)-3-phenyl-propenone derivatives” (Novartis AG., priority 2002, dated 2010).

Work on `C[C@@H]1CN(Cc2ccc(F)cc2)CCN1C(=O)/C=C/c1ccc(Cl)cc1NC(=O)N1CCNC1=O` [Example 11, 2-Oxo-imidazolidine-1-carboxylic acid (5-Chloro-2-[(E)-3-[(R)-4-(4-fluoro-benzyl)-2-methyl-piperazin-1-yl]-3-oxo-propenyl]-phenyl)-amide] yielded a melting point of 275 to 277 °C.
